Like-named read-outs stand apart in the source and are kept apart here. Marks after values point to notes of the source that are not given here.
What was measured:
[1] = system: Fusobacterium necrophorum ATCC No. 25286; details: for zone of inhibition of Fusobacterium necrophorum: disc on BA plate, anaerobic 48 hours, mean of three assays; for zone of inhibition of F. necrophorum, comparison between minerals: at each of the concentrations (2.5-15%), P<0.01; for zone of inhibition of F. necrophorum, comparison between minerals / overall antibacterial effect on F. necrophorum: in words; for overall antibacterial effect on F. necrophorum: summary
Procedure: (§1) The bacterial strains used for this study were obtained from the American Type Culture Collection (ATCC).
(§2) Dehydrated bacteria were resuspended in 5 mL of Brain Heart Infusion (BHI) broth and incubated anaerobically for 48 hours at 37° C. A total of 20 uL of each resuspended bacterial solution was plated on two 5% Trypticase Sheep Blood Agar (BA) plates and incubated anaerobically for 48 hours at 37° C. to ensure that a pure culture was maintained throughout the resuspension process. Six (6) vials of each bacterium were frozen down from the resuspended broth in a 20% glycerol solution (500 uL bacteria: 500 uL 40% glycerol).
(§3) One vial from the frozen stock of each bacterial strain was grown in 100 mL of Difco Anaerobe Broth MIC. P. melaninogenica was grown anaerobically for 24 hours at 37° C. and F. necrophorum was grown anaerobically for 48 hours at 37° C. After incubation, one hundred (100) 1 mL-vials of each bacterium were frozen down in a 10% glycerol solution.
(§4) Colony forming units/mL (CFU/mL) for each bacterium was determined by thawing 3 vials of each bacteria and making serial 1:10 dilutions out to 10e^−7. Separate serial dilutions were made for each of the three vials. A total of 100 uL of dilutions 10e^−3, 10e^−4, 10e^−5, 10e^−6, and 10e^−7 were plated in duplicate for each vial on BA plates and incubated under the appropriate culture conditions for each. The number of colonies growing on each dilution plate was counted and the CFU/mL for each dilution was determined. The average CFU/mL for each bacterium was calculated and used for all further assays.
(§5) The ZnCl arrived as a 60% solution and was diluted with distilled water to achieve concentrations of 2.5%, 5%, 10%, and 15% by weight. […] All mineral concentrations were filter-sterilized to ensure sterility.
(§6) To determine whether different concentrations of mineral salt solutions can inhibit the growth of an established culture, a separate blank paper disc was infused with each concentration of mineral salt solution and placed onto BA plates that had been swabbed with established cultures of each bacterium. Plates were incubated anaerobically for 48 hours and the zone (in mm) around each disc with no bacterial growth was measured with a caliper. The assay was repeated three times, and the mean zone of inhibition for each mineral concentration was calculated.
(§7) Data were analyzed using the Mixed Model procedure of SAS (PROC MIXED; SAS Stat Inc., Cary, N.C.) to test the effect of different concentrations for each mineral on P. melaninogenica and F. necrophorum. Least square means were calculated and separated using the PDIFF option of SAS. Contrast statements of SAS were used to determine linear and quadratic effects. The plate was used as the experimental unit. An alpha level of 0.05 was used to assess the significance in this experiment.

[2] = system: Prevotella melaninogenica ATCC No. 25845; details: for zone of inhibition of Prevotella melaninogenica: disc on BA plate, anaerobic 48 hours, mean of three assays; for zone of inhibition of P. melaninogenica, comparison between minerals: at each of the concentrations (2.5-15%); for zone of inhibition of P. melaninogenica, comparison between minerals / overall antibacterial effect on P. melaninogenica: in words; for overall antibacterial effect on P. melaninogenica: summary
Procedure: as §1, §2, §3, §4, §5, §6, §7

[3] = 2.5% solution in distilled water
[4] = 10% solution in distilled water
[5] = 15% solution in distilled water

| Compound | pH of mineral salt solution [3] | pH of mineral salt solution (5% solution in distilled water) | pH of mineral salt solution [4] | pH of mineral salt solution [5] | pH relative to the other mineral salts (at all of the concentrations, in words) | zone of inhibition of Fusobacterium necrophorum ([1]; 2.5% solution) | zone of inhibition of Fusobacterium necrophorum ([1]; 5% solution) | zone of inhibition of Fusobacterium necrophorum ([1]; 10% solution) | zone of inhibition of Fusobacterium necrophorum ([1]; 15% solution) | zone of inhibition of F. necrophorum, comparison between minerals [1] | overall antibacterial effect on F. necrophorum [1] | zone of inhibition of Prevotella melaninogenica ([2]; 2.5% solution) | zone of inhibition of Prevotella melaninogenica ([2]; 5% solution) | zone of inhibition of Prevotella melaninogenica ([2]; 10% solution) | zone of inhibition of Prevotella melaninogenica ([2]; 15% solution) | zone of inhibition of P. melaninogenica, comparison between minerals [2] | overall antibacterial effect on P. melaninogenica [2] |
| --- | --- | --- | --- | --- | --- | --- | --- | --- | --- | --- | --- | --- | --- | --- | --- | --- | --- |
| [Cl-].[Cl-].[Zn+2] [ZnCl2, zinc chloride] | 6.02 | 5.78 | 5.43 | 5.21 | less acidic | 27.6^b mm | 33.9^b mm | 41.3^b mm | 44.2^b mm | intermediate | greatest antibacterial effect | 38.9^b mm | 42.5^b mm | 46.6^b mm | 52.0^b mm | significantly greater zone of inhibition | greatest antibacterial effect |
| O=S(=O)([O-])[O-].[Cu+2] [CuSO4, copper sulfate] | 4.34 | 4.13 | 3.94 | 3.81 |  | 36.3^c mm | 40.7^c mm | 46.7^c mm | 52.2^c mm | greatest | greatest antibacterial effect | 31.0^a mm | 31.7^a mm | 38.2^a mm | 40.7^a mm | not significantly different | greatest antibacterial effect |
| O=S(=O)([O-])[O-].[Zn+2] [ZnSO4, zinc sulfate] | 5.06 | 4.75 | 4.34 | 4.16 |  | 25.0^a mm | 29.5^a mm | 35.8^a mm | 40.4^a mm | smallest | only slightly less antibacterial activity | 29.3^a mm | 33.5^a mm | 38.6^a mm | 42.9^a mm |  | only slightly less antibacterial activity |

From patent US7670629B2, “Method of treating bacterial hoof infections of sheep and cattle” (priority 2005, dated 2010)
